Experimental data reported in article PMC8277899, “A novel RyR1-selective inhibitor prevents and rescues sudden death in mouse models of malignant hyperthermia and heat stroke” (Nature Communications, 2021).
In brackets after ≈: the same amount, converted by molar mass. Several values for one entry are separate records, joined by “and”; a condition that tells them apart may be missing. Equal entries are not always repeated. Where two headings read alike, the source gives them in different places.

Tests used:
[1] = test system: FDB muscle cells from WT mice; experiment: Ca2+ imaging (Cal520, fura-2) of isolated single FDB cells from WT mice; type: cell-based, mouse
Protocol: (§1) WT and mutant mice (R2509C, 8- to 20-week old; R163C, 12- to 16-week old, and G2435R, 12- to 16-week old) were euthanized and flexor digitorum brevis (FDB) muscles were dissected and incubated with 2 mg/mL collagenase (Worthington Biochemical Co., NJ, USA) in the HEPES-Krebs solution containing 2 mg/mL bovine serum albumin for 2–3 h at 37 °C. Following incubation, single cells were separated by gentle trituration in collagenase-free HEPES-Krebs solution. Isolated single FDB cells were seeded on a laminin-coated cover slip of the 35 mm glass-bottom dish or on 96 well plate coated with Cultrex basement membrane matrix (Trevigen, Minneapolis, USA).
Isolated single FDB cells were incubated with 4 µM Cal520-AM (AAT Bioquest, CA, USA) or fura-2-AM (Thermo Fisher Scientific) dye in the HEPES-Krebs solution (140 mM NaCl, 5 mM KCl, 2 mM CaCl2, 1 mM MgCl2, 11 mM glucose, 5 mM HEPES, pH 7.4) for 30 min at 37 °C. The cells were then washed three times with the HEPES-Krebs solution to remove excess dye, and after 30 min of de-esterification, fluorescence images were obtained with a 20X (NA = 0.75) objective lens of an inverted microscope (Nikon TE2000-E Japan) equipped with the sCMOS camera (Zyla, Andor, Belfast, Northern Ireland) using Metamorph v7 (Molecular Devices). Cal520 was excited at 480 ± 15 nm, and fluorescence was measured at wavelengths of 525 ± 25 nm. […]

G2435R mice = experiment: In vivo heat stress challenge in awake restrained G2435R mice (38 °C chamber); design: species or system mouse; conditions: pretreatment 30 mg/kg
mice = experiment: Observation of side effects in mice; type: in vivo, mouse
[2] = Thermodynamic solubility in solutions for injection
R2509C mice [3] = type: in vivo, mouse; conditions: for Survival 60 min after administration (survivors/total) / mice surviving 60 min after administration: rescue
[4] = Metabolic stability in human liver microsomes; type: in vitro ADME; conditions: 0.5 μM, NADPH
Protocol: Cpd1 (final concentration was 0.5 μM) was incubated with human or mouse hepatic microsomes (XenoTech Ltd, Kansas City, KS) with nicotinamide adenine dinucleotide phosphate (NADPH) for 10 and 60 min at 37 °C. Each reaction was stopped by acetonitrile, and the value of unchanged compound 1 was determined by quantitating using LC–MS/MS, and the metabolic stability was evaluated as a remaining rate (%).

[5] = Pharmacokinetics after i.p. administration in mice; type: in vivo, mouse; conditions: 8-times injection of 1 mg/kg at 10 min intervals
R2509C mice [6] = type: in vivo, mouse
[7] = test system: FDB muscle cells from R2509C mice; experiment: Ca2+ imaging (Cal520, fura-2) of isolated single FDB cells from R2509C mice, rest, halothane, isoflurane; type: cell-based, mouse
Protocol: as §1
Isolated single FDB cells were incubated with 4 µM Cal520-AM (AAT Bioquest, CA, USA) or fura-2-AM (Thermo Fisher Scientific) dye in the HEPES-Krebs solution (140 mM NaCl, 5 mM KCl, 2 mM CaCl2, 1 mM MgCl2, 11 mM glucose, 5 mM HEPES, pH 7.4) for 30 min at 37 °C. The cells were then washed three times with the HEPES-Krebs solution to remove excess dye, and after 30 min of de-esterification, fluorescence images were obtained with a 20X (NA = 0.75) objective lens of an inverted microscope (Nikon TE2000-E Japan) equipped with the sCMOS camera (Zyla, Andor, Belfast, Northern Ireland) using Metamorph v7 (Molecular Devices). Cal520 was excited at 480 ± 15 nm, and fluorescence was measured at wavelengths of 525 ± 25 nm. Fura-2 was excited at alternating lights of 340 ± 6 nm and 380 ± 6 nm, fluorescent light was detected at 510 ± 40 nm, and the ratio of fluorescence excited at 340 nm to that at 380 nm was determined. Imaging experiments were carried out at 26 °C by superfusing a HEPES-Krebs solution with or without halothane or isoflurane. Cpd1 was administered 5 min before measurements. For Mn^2+ quenching experiments, fura-2 was excited at 360 ± 12 nm and emitted fluorescence at 510 ± 40 nm was monitored. The cells were perfused with basal Krebs solution (140 mM NaCl, 5 mM KCl, 1 mM MgCl2, 11 mM glucose, 2 mM CaCl2, 10 mM HEPES, pH 7.4) for 60 s to obtain the baseline signal and then perfused with Mn^2+ quenching Krebs solution (140 mM NaCl, 5 mM KCl, 1 mM MgCl2, 11 mM glucose, 0.5 mM MnCl2, 10 mM HEPES, pH 7.4) for 180 s followed by reperfusion with basal Krebs solution for 120 s.

[8] = 1 mg/kg i.p. 8 times every 10 min
[9] = preventive, 10 mg/kg i.p. 10 min before isoflurane, 10 mg/kg
[10] = preventive, 10 mg/kg 10 min before heat stress

## CCCCCCCCn1cc(C(=O)O)c(=O)c2cc3c(cc21)OCO3 [Cpd1, 6,7-(methylenedioxy)-1-octyl-4-quinolone-3-carboxylic acid]
[1]; WT cells, 0.1 and 0.3 µM
  effect on resting [Ca2+]i (fura-2): no significant effect
[1]; WT, single experiments
  Ca2+ signal with Cpd1 relative to None = 1 (sheet Fig S1b): 0.9888 and 0.981 and 0.9775 and 0.9827 and 0.9913
G2435R mice
  effect on rise in rectal temperature: greatly slowed the rise in rectal temperature
mice
  side effects: no apparent side effects of Cpd1 other
[2]; free acid
  water solubility: virtually water insoluble
[2]; normal saline
  solubility in normal saline compared to dantrolene: 34 fold
[2]; normal saline (0.9% NaCl), 25 °C, saline or isotonic, thermodynamic from solid
  solubility at 48 h: 849 ± 58 µg/mL (≈ 2460 µM)
R2509C mice [3]; 1 mg/kg i.p. 8 times at 10 min intervals, isoflurane
  effect on rise in rectal temperature: successfully prevented rise in the rectal temperature
R2509C mice [3]; [8]
  Survival 90 min after isoflurane challenge (survivors/total): all the mice survived
R2509C mice [3]; 3 mg/kg i.p. each time rectal temperature reached 39 °C, isoflurane
  effect of second and third administrations on rectal temperature: successfully decreased the rectal temperature
R2509C mice [3]; preventive, 3 mg/kg i.p.
  effect on rise in rectal temperature: did not prevent rise in rectal temperature
R2509C mice [3]; preventive, 3 mg/kg i.p. 10 min before isoflurane, 3 mg/kg
  Survival after 90 min of anesthesia (survivors/total): 1 out of 6
R2509C mice [3]; preventive, 3 mg/kg i.p. 10 min before isoflurane, listed as Cpd 1, 3 mg/kg
  Survival after 90 min of anesthesia (survivors/total): 1/6
R2509C mice [3]; preventive, 3 mg/kg i.p., n = 5
  Time to death: 47 ± 15 min
R2509C mice [3]; preventive, 10 mg/kg i.p.
  effect on rise in rectal temperature: successfully prevented any rise in rectal temperature
R2509C mice [3]; [9]
  Maximum rectal temperature: 36.1797 °C and 35.7812 °C and 35.4844 °C and 36.3594 °C and 36.1344 °C and 36.1406 °C
  Survival after 90 min of anesthesia (survivors/total): All the treated mice survived
R2509C mice [3]; 3 mg/kg i.p. at 39 °C
  Survival 60 min after administration (survivors/total): 6/10
  mice surviving 60 min after administration: 60%
R2509C mice [3]; 10 mg/kg i.p. at 39 °C
  Survival 60 min after administration (survivors/total): 8/8
  mice surviving 60 min after administration: 100%
[4]; 10 min
  remaining rate (residual Cpd1, 0 min = 100%): 69% and 68% and 65% and 66%
[4]; 60 min
  remaining rate (residual Cpd1, 0 min = 100%): 25% and 26% and 23%
[5]; female, 10 min
  plasma concentration: 70 ng/mL and 90 ng/mL
[5]; male, 5 min
  plasma concentration: 610 ng/mL and 360 ng/mL
R2509C mice [6]; 1 mg/kg i.p. 8 times at 10 min intervals, heat stress
  effect on rise in rectal temperature: successfully prevented rise in the rectal temperature
R2509C mice [6]; [8]
  Survival 90 min after heat stress challenge (survivors/total): all the mice survived
R2509C mice [6]; 3 mg/kg, preliminary experiments
  preventive effect in heat stress experiments: no effect
R2509C mice [6]; preventive, 10 mg/kg
  effect on rate of temperature rise: slowed the rate of temperature rise
R2509C mice [6]; [10]
  Survival 120 min after heat stress challenge (survivors/total): 0 out of 4 and 0/4
  Time to death from start of heat stress challenge: 115.67 min and 109.33 min and 83.5 min and 85 min
R2509C mice [6]; rescue, 3 mg/kg i.p. at 38 °C
  Survival 60 min after administration (survivors/total): 5/6
R2509C mice [6]; rescue, 3 mg/kg i.p. at 39 °C, 3 mg/kg
  Survival 60 min after administration (survivors/total): 3/5 and 3 out of 5
R2509C mice [6]; rescue, 10 mg/kg i.p. at 38 °C
  Survival 60 min after administration (survivors/total): 6/6
R2509C mice [6]; rescue, 10 mg/kg i.p. at 39 °C, 10 mg/kg
  Survival 60 min after administration (survivors/total): 10/11 and 10 out of 11
R2509C mice [6]; rescue, 3 and 10 mg/kg i.p. at 38 °C
  effect on continued rise in body temperature: strongly suppressed
[7]; R2509C cells, 0.1 μM
  effect on isoflurane-induced increase in [Ca2+]i: completely prevented
  effect on resting [Ca2+]i (Cal520): reduced
[7]; R2509C cells, 0.1 μM Cpd1, halothane 0.0001
  Ca2+ signal (Cal520, F/F0): 1
[7]; R2509C cells, 0.1 μM Cpd1, halothane 0.001
  Ca2+ signal (Cal520, F/F0): 1.0324 and 1.0472 and 0.9774 and 0.9848 and 0.9736
[7]; R2509C cells, 0.1 μM Cpd1, halothane 0.003
  Ca2+ signal (Cal520, F/F0): 1.0085 and 1.0149 and 0.9846 and 0.9811 and 0.9717
[7]; R2509C cells, 0.1 μM Cpd1, halothane 0.01
  Ca2+ signal (Cal520, F/F0): 1.0131 and 1.0119 and 0.9966 and 0.9808 and 0.9633
[7]; R2509C cells, 0.1 μM Cpd1, halothane 0.03
  Ca2+ signal (Cal520, F/F0): 0.9989 and 1.0012 and 1.0266 and 1.0111 and 1.0033
[7]; R2509C cells, 0.1 μM Cpd1, halothane 0.1
  Ca2+ signal (Cal520, F/F0): 1.0006 and 0.9977 and 1.0575 and 1.0571 and 1.0156
[7]; R2509C cells, 0.1 μM Cpd1, isoflurane 0
  Ca2+ signal (fura-2 ratio): 1.236 and 1.532 and 1.49 and 1.463 and 1.64 and 1.372 and 1.497 and 1.401
[7]; R2509C cells, 0.1 μM Cpd1, isoflurane 0.1
  Ca2+ signal (fura-2 ratio): 1.237 and 1.533 and 1.482 and 1.467 and 1.643 and 1.374 and 1.485 and 1.496
[7]; R2509C cells, 0.1 μM Cpd1, isoflurane 0.2
  Ca2+ signal (fura-2 ratio): 1.24 and 1.549 and 1.492 and 1.502 and 1.673 and 1.396 and 1.504 and 1.444
[7]; R2509C cells, 0.1 μM Cpd1, isoflurane 0.5
  Ca2+ signal (fura-2 ratio): 1.266 and 1.58 and 1.488 and 1.503 and 1.677 and 1.451 and 1.62 and 1.544
[7]; R2509C cells, 0.1 and 0.3 µM
  effect on resting [Ca2+]i (fura-2): reduced [Ca^2+]i in R2509C cells in a dose-dependent manner
[7]; R2509C cells, pretreatment 0.1 µM
  effect on halothane-induced increases in [Ca2+]i: completely abolished
[7]; R2509C, single experiments
  Ca2+ signal with Cpd1 relative to None = 1 (sheet Fig S1b): 0.9373 and 0.9655 and 0.9601 and 0.9482 and 0.7826 and 0.8571
